# What was measured:
# Assay type in all cases: in vivo
# [1] = tested on: crabgrass, large (large crabgrass, Digitaria sanguinalis); experiment: Test A pre-/postemergence: crabgrass, large
# Outline: (§1)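 Visual 0–100 injury ratings (0 no effect, 100 complete control) taken about ten days after treatment, relative to untreated controls. Preemergence treatment was a directed soil spray; postemergence plants were 2–10 cm tall at one- to two-leaf stage. Soil: loam/sand blend.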
# [2] = tested on: morningglory (Ipomoea spp.); experiment: Test A pre-/postemergence: morningglory
# Outline: as §1
# [3] = tested on: barnyardgrass (Echinochloa crus-galli); experiment: Test A pre-/postemergence: barnyardgrass
# Outline: as §1
# [4] = tested on: pigweed (Amaranthus retroflexus); experiment: Test A pre-/postemergence: pigweed
# Outline: as §1
# [5] = tested on: wheat (Triticum aestivum); experiment: Test A pre-/postemergence: wheat
# Outline: as §1
# [6] = tested on: velvetleaf (Abutilon theophrasti); experiment: Test A pre-/postemergence: velvetleaf
# Outline: as §1
# corn (Zea mays) = experiment: Test A pre-/postemergence: corn
# Outline: as §1
# [7] = tested on: sedge, umbrella (small-flower umbrella sedge, Cyperus difformis); experiment: Test C flooded paddy test: sedge, umbrella; details: scale 0 to 100 (0 no effect, 100 complete control)
# Outline: (§2)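 Visual ratings from 0 (no effect) to 100 (complete control), made against untreated controls 13 to 15 days after treatment, express plant response. Compounds went directly into paddy water over 2-leaf stage plants in pots flooded to 3 cm.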
# [8] = tested on: ducksalad (Heteranthera limosa); experiment: Test C flooded paddy test: ducksalad; details: scale 0 to 100 (0 no effect, 100 complete control)
# Outline: as §2
# [9] = tested on: barnyardgrass (Echinochloa crus-galli); experiment: Test C flooded paddy test: barnyardgrass; details: scale 0 to 100 (0 no effect, 100 complete control)
# Outline: as §2
# rice (Oryza sativa) = experiment: Test C flooded paddy test: rice; details: scale 0 to 100 (0 no effect, 100 complete control)
# Outline: as §2
# [10] = tested on: foxtail, giant (giant foxtail, Setaria faberii); experiment: Test A pre-/postemergence: foxtail, giant
# Outline: as §1
# [11] = Postemergence, 125 g ai/ha, 0 to 100 scale, 0 is no effect, 100 is complete control
# [12] = Postemergence, 500 g ai/ha, visual rating on 0 to 100 scale (0 no effect, 100 complete control), approximately ten days
# [13] = Preemergence, 125 g ai/ha, 0 to 100 scale (0 no effect, 100 complete control)
# [14] = Preemergence, 500 g ai/ha, 0 to 100 scale, 0 is no effect, 100 is complete control
# [15] = Flood (flooded paddy test), 62 g ai/ha, visual rating after 13 to 15 days
# [16] = Flood (flooded paddy test), 125 g ai/ha, visual rating after 13 to 15 days
# [17] = Flood (flooded paddy test), 250 g ai/ha, visual rating after 13 to 15 days
# [18] = Postemergence, 1000 g ai/ha, visual rating on 0 to 100 scale (0 no effect, 100 complete control), approximately ten days
# [19] = Preemergence, 1000 g ai/ha, 0 to 100 scale, 0 is no effect, 100 is complete control
structure (smiles),measurement,setting,value
Cc1nn(-c2ccccn2)nc1C(=O)c1cccc(C(F)(F)F)c1 [Compound 60],"Crabgrass, Large plant response rating",[1]; [11],0
same,"Crabgrass, Large plant response rating",[1]; [12],10
same,"Plant response rating, Crabgrass, Large",[1]; [13],0
same,"Plant response rating, Crabgrass, Large",[1]; [14],0
same,Morningglory plant response rating,[2]; [11],0
same,Morningglory plant response rating,[2]; [12],0
same,"Plant response rating, Morningglory",[2]; [13],0
same,"Plant response rating, Morningglory",[2]; [14],0
same,Barnyardgrass plant response rating,[3]; [11],0
same,Barnyardgrass plant response rating,[3]; [12],10
same,"Plant response rating, Barnyardgrass",[3]; [13],0
same,"Plant response rating, Barnyardgrass",[3]; [14],0
same,Pigweed plant response rating,[4]; [11],0
same,Pigweed plant response rating,[4]; [12],10
same,"Plant response rating, Pigweed",[4]; [13],0
same,"Plant response rating, Pigweed",[4]; [14],0
same,Wheat plant response rating,[5]; [11],0
same,Wheat plant response rating,[5]; [12],0
same,"Plant response rating, Wheat",[5]; [13],0
same,"Plant response rating, Wheat",[5]; [14],0
same,Velvetleaf plant response rating,[6]; [11],0
same,Velvetleaf plant response rating,[6]; [12],0
same,"Plant response rating, Velvetleaf",[6]; [13],0
same,"Plant response rating, Velvetleaf",[6]; [14],0
same,Corn plant response rating,corn (Zea mays); [11],0
same,Corn plant response rating,corn (Zea mays); [12],10
same,"Plant response rating, Corn",corn (Zea mays); [13],0
same,"Plant response rating, Corn",corn (Zea mays); [14],0
same,"Plant response rating, Sedge, Umbrella",[7]; [15],0
same,"Plant response rating, Sedge, Umbrella",[7]; [16],0
same,"Plant response rating, Sedge, Umbrella",[7]; [17],0
same,"Plant response rating, Sedge, Umbrella","[7]; Flood, 31 g ai/ha",0
same,"Plant response rating, Ducksalad",[8]; [15],0
same,"Plant response rating, Ducksalad",[8]; [16],0
same,"Plant response rating, Ducksalad",[8]; [17],0
same,"Plant response rating, Ducksalad","[8]; Flood, 31 g ai/ha",0
same,"Plant response rating, Barnyardgrass",[9]; [15],0
same,"Plant response rating, Barnyardgrass",[9]; [16],0
same,"Plant response rating, Barnyardgrass",[9]; [17],0
same,"Plant response rating, Barnyardgrass","[9]; Flood, 31 g ai/ha",0
same,"Plant response rating, Rice",rice (Oryza sativa); [15],0
same,"Plant response rating, Rice",rice (Oryza sativa); [16],0
same,"Plant response rating, Rice",rice (Oryza sativa); [17],0
same,"Plant response rating, Rice","rice (Oryza sativa); Flood, 31 g ai/ha",0
same,"Foxtail, Giant plant response rating",[10]; [11],0
same,"Foxtail, Giant plant response rating",[10]; [12],0
same,"Plant response rating, Foxtail, Giant",[10]; [13],0
same,"Plant response rating, Foxtail, Giant",[10]; [14],0
CCc1nn(-c2ccc(C(F)(F)F)cc2)nc1Cn1nc(C(F)(F)F)cc1C [Compound 131],"Crabgrass, Large plant response rating",[1]; [18],90
same,"Crabgrass, Large plant response rating",[1]; [19],90
same,Morningglory plant response rating,[2]; [18],70
same,Morningglory plant response rating,[2]; [19],10
same,Barnyardgrass plant response rating,[3]; [18],30
same,Barnyardgrass plant response rating,[3]; [19],20
same,Pigweed plant response rating,[4]; [18],100
same,Pigweed plant response rating,[4]; [19],90
same,Wheat plant response rating,[5]; [18],0
same,Wheat plant response rating,[5]; [19],0
same,Velvetleaf plant response rating,[6]; [18],40
same,Velvetleaf plant response rating,[6]; [19],0
same,Corn plant response rating,corn (Zea mays); [18],30
same,Corn plant response rating,corn (Zea mays); [19],0
same,"Plant response rating, Sedge, Umbrella",[7]; [17],0
same,"Plant response rating, Sedge, Umbrella","[7]; Flood, 62 g ai/ha",0
same,"Plant response rating, Ducksalad",[8]; [17],20
same,"Plant response rating, Ducksalad","[8]; Flood, 62 g ai/ha",0
same,"Plant response rating, Barnyardgrass",[9]; [17],10
same,"Plant response rating, Barnyardgrass","[9]; Flood, 62 g ai/ha",0
same,"Plant response rating, Rice",rice (Oryza sativa); [17],0
same,"Plant response rating, Rice","rice (Oryza sativa); Flood, 62 g ai/ha",0
same,"Foxtail, Giant plant response rating",[10]; [18],50
same,"Foxtail, Giant plant response rating",[10]; [19],90
